System: mouse peritoneal macrophages
Assay: Suppression of foaming of macrophages: cholesterol ester (CE) production in mouse peritoneal macrophages loaded with liposomes
Format: cell-based
Conditions: for suppression of foaming of macrophages / cholesterol ester synthesis (result in words): mouse peritoneal macrophages, 5 μM; for CE yield (%): test compound 5 μM, 16 h with liposomes, cholesterol ester yield relative to control without test compound = 100% (smaller value = more potent suppression)
Method: Activity of the compounds of the present invention for suppressing the foaming of macrophages, which triggers arterial sclerosis, was examined. (1) In vitro experiment using mouse peritoneal macrophages.
15-Week old female ICR mice (Nippon SLC) were subjected to bleeding by cutting off their cervicalis, and Hanks buffer (Nippon Seiyaku) was injected into their peritoneal cavities. After abdominal regions of the mice were massaged, the buffer was recovered immediately, and then the resulting buffer was centrifuged at 1,000 r.p.m. for five minutes to collect peritoneal macrophages. Then, the collected macrophages were suspended in GTI medium (Wako Pure Chemical Industries), and inoculated onto a 24-well microtiter plate. After the macrophages were cultivated at 37° C. under 5% CO2 for two hours, the culture medium was changed with Dulbecco Modified Eagle Medium (MEM, Nippon Seiyaku). The macrophages were further cultivated at 37° C. under 5% CO2 for 16 hours, and then a test compound and liposomes were added to the culture.
1) Test compound: dissolved in DMSO (Wako Pure Chemical Industries),
2) Liposomes: PC/PS/DCP/CHOL=50/50/10/75 (nmol)
PC: Phosphatidylcholine (Funakoshi);
PS: Phosphatidylserine (Funakoshi);
DCP: Dicetylphosphate (Funakoshi);
CHOL: Cholesterol (Sigma)
After cultivation was further continued at 37° C. under 5% CO2 for 16 hours, lipid fraction was extracted with chloroform and methanol. The extracted lipid fraction was dissolved in isopropyl alcohol, and the produced cholesterol ester (CE) was quantified by an enzymatic luminescence method. Yield of the cholesterol ester was calculated as a relative ratio based on yield of the control as 100% where no test compound was added.

| Molecule | suppression of foaming of macrophages / cholesterol ester synthesis (result in words) | CE yield (%) |
| --- | --- | --- |
| CCCCCCN(CCCCCSc1nc2ccccc2[nH]1)C(=O)Nc1ccc(F)cc1F [Ref. 3, reference compound] | almost no inhibitory effect | 78 |
| O=C1CCC(=O)N1CCCCCSc1nc2ccccc2[nH]1 [Compound 11, N-(5-(benzimidazolyl-2-thio)pentyl)succinimide] |  | 19 |
| 3-(5-(1-methylbenzimidazolyl-2-thio)pentyl)-5-methyl-2,4-oxazolidinedione [Compound 14] |  | 20 |
| O=C1CSC(=O)N1CCOCCSc1nc2ccccc2[nH]1 [Compound 22] |  | 23 |
| CC(C)Oc1cccc(OC(C)C)c1NC(=O)CN1CCN(CCCSc2nc3ccccc3[nH]2)CC1 [Ref. 2, reference compound] | almost no inhibitory effect | 95 |
| O=C1CSC(=O)N1CCCCCSc1nc2ccccc2[nH]1 [Compound 2, 3-(5-(benzimidazolyl-2-thio)pentyl)-2,4-thiazolidinedione] |  | 19 |
| O=C1CSC(=O)N1CCOCCOCCSc1nc2ccccc2[nH]1 [Compound 23, 3-(2-(2-(2-benzimidazolyl-2-thio)ethoxy)ethoxy)ethyl-2,4-thiazolidinedione] |  | 22 |
| 3-(6-(5-chlorobenzothiazolyl-2-thio)hexyl)-2,4-thiazolidinedione [Compound 16] |  | 15 |
| O=C1c2ccccc2C(=O)N1CCCCSCc1nc2ccccc2[nH]1 [Ref. 1, reference compound] | completely inactive | 89 |
| CCC(=O)n1c(SCCCCCN2C(=O)OC(C)C2=O)nc2ccccc21 (stereo not shown) [Compound 15, 3-(5-(1-propionylbenzimidazolyl-2-thio)pentyl)-5-methyl-2,4-oxazolidinedione] |  | 12 |

From patent US6593323B1, “Benzimidazole compounds and drugs containing the same” (Fuji Photo Film Co., Ltd., priority 1999, dated 2003)
